The test system of assay [1] is Straub tail reaction in mice. Put plainly: Narcotic test (Straub tail reaction). It counts as in vivo, mouse (CF1 S female). The settings on record: 0.4 h, read-out: EFFECT ED50 Straub-tail (Oral). The protocol: Narcotic analgesics which have only agonist activity produce in mice an erection and arching of the tail (90° or more) which is referable to spinal cord stimulation. This Straub tail reaction is not produced by other analgesics, including the narcotic antagonists.
The method used was modified from Shemano, I., and Wendel, H., Tox. Appl. Pharm., 6, 334-9 (1964). CF1 S female mice (18-21 g), 10-20 mice per dose, were […] with log scaled doses of analgesic in 1% aqueous methylcellulose. A positive Straub tail response was recorded if a tail was erected 90° or more for 5 seconds at any time within 24 minutes after dosing. A quantal Straub tail ED50 was calculated by the moving average method [Thompson, W. R., Bact. Rev., 11, 115-145 (1947)].

Assay [2] deals with writhing syndrome induced by phenylquinone in mice. Description: Analgesic test (phenylquinone writhing, anti-PQW). To be noted: mouse; oral; phenylquinone i.p.; read-out: EFFECT ED50 Anti-PQW (Oral). It counts as in vivo, mouse (female white mice). The method, then: A standard procedure for detecting and comparing the analgesic activity of compounds in this series for which there is good correlation with human efficacy is the standard phenylquinone writhing test modified from Siegmund, et al., Proc. Soc. Exp. Biol. Med., 95, 729 (1957). A test compound suspended in 1% Methocel® was given orally to fasted (17-21 hours) female white mice, 5-20 animals per double blind test. Aqueous phenylquinone (0.1% phenyl-p-benzoquinone) was injected intraperitoneally at 24 minutes later using 0.20 ml per mouse. […] The effective analgesic dose for 50% of the mice (ED50) was calculated by the moving average method of Thompson, W. R., Bact. Rev., 11, 115-145 (1947).

Assay [3] has as its system Straub tail induced by morphine sulfate in mice. Description: Narcotic antagonist test (mouse anti-Straub tail test against morphine). It is filed as in vivo, mouse (female CF1 S). The settings on record: vs 30 mg/kg morphine sulfate i.p. The protocol: This property is the basis of a mouse test for narcotic antagonists.
Female CF1 S mice (fasted 17-21 hrs.), 5 per dose, were injected orally or subcutaneously with test drug at 0.67, 2, 6, 18, 54 and 162 mg/kg or other appropriate doses in 0.20 ml 1% Methocel® per mouse. Five minutes later, 30 mg/kg of morphine sulfate in 0.20 ml 1% Methocel® per mouse was given intraperitoneally. Starting ten minutes later, the mice were observed continuously for 5 minutes for evidence of Straub tail. Prevention of Straub tail during this observation period was taken as indication of narcotic antagonist ability.

For assay [4], the system named is Straub tail induced by morphine in mice. The settings on record: mouse; cited from earlier work.
For assay [5] the following is noted: chronic oral therapy; cited from earlier work.
The mark [6] stands for this setting: mouse, oral, within 24 minutes after dosing.
[7] abbreviates: sc, read-out: EFFECT ED50 Anti-Straub Tail (s.c.).

We go through twelve compounds from patent publication US4451470A, “Analgesic, antagonist, and/or anorectic 14-fluoromorphinans” (E. I. Du Pont de Nemours and Company, priority 1982, dated 1984).

Like-named read-outs stand apart in the source and are kept apart here. Some results are limits rather than exact numbers.

Usually ED50 stands for the dose at which the effect has come halfway, by size or by number of responders. For `COc1ccc2c3c1O[C@H]1C4(CCC5(F)C(C2)N(CC2CC2)CCC315)OCCO4` (stereo partly shown) [Example 1], the results for the ED50 in assay [1] (setting [6]), in assay [2] and in assay [3] (setting [7]) were above 135 mg/kg, 42 mg/kg and 1.7 mg/kg, respectively.
On to `COc1ccc2c3c1OC1C(=O)CC[C@@]4(F)[C@@H](C2)N(CC2CC2)CC[C@]314` (stereo partly shown) [Example 2, 17-(Cyclopropylmethyl)-4,5-epoxy-14-fluoro-3-methoxymorphinan-6-one], for which the ED50 is above 135 mg/kg in assay [1] (Mus musculus, po); above 135 mg/kg in assay [2]; 0.33 mg/kg in assay [3] (setting [7]).
With `O=C1CC[C@@]2(F)[C@H]3Cc4ccc(O)c5c4[C@@]2(CCN3CC2CC2)C1O5` (stereo partly shown) [Example 3, 17-(Cyclopropylmethyl)-4,5-epoxy-14-fluoro-3-hydroxymorphinan-6-one], the 50% effective dose (ED50) was above 135 mg/kg in assay [1] (Mus musculus, po); above 135 mg/kg in assay [2]; 0.09 mg/kg in assay [3] (oral, read-out: EFFECT ED50 Anti-Straub Tail (Oral)); 0.01 mg/kg in assay [3] (setting [7]).
Consider `Oc1ccc2c3c1O[C@H]1[C@@H](O)CCC4(F)C(C2)N(CC2CCC2)CCC314` (stereo partly drawn) [Example 6, 17-(Cyclobutylmethyl)-4,5-epoxy-14-fluoro-morphinan-3,6-diol (α-isomer)], for which the ED50 in assay [1] (setting [6]) is above 135 mg/kg; in assay [2] it was 30.4 mg/kg; in assay [3] (setting [7]), 0.41 mg/kg.
In the case of `CN1CC[C@]23c4c5ccc(O)c4OC2C(=O)CC[C@@]3(F)[C@H]1C5` (stereo partly shown) [Example 7, 17-Methyl-14-fluoro-3-hydroxy-4,5-epoxymorphinan-6-one], the ED50 in assay [1] (Mus musculus, po) was 18.7 mg/kg; in assay [2] it was 2.4 mg/kg; in assay [3] (setting [7]), above 81 mg/kg.
Turning to `COc1ccc2c3c1O[C@H]1C4(CCC5(F)C(C2)N(CC2CCC2)CCC315)OCCO4` (stereo partly shown) [Example 8], the ED50 in assay [1] (setting [6]) was above 135 mg/kg; in assay [2], 11.1 mg/kg; in assay [3] (setting [7]), above 135 mg/kg.
On to `COc1ccc2c3c1O[C@H]1C(=O)CCC4(F)C(C2)N(CC2CCC2)CCC314` (stereo partly shown) [Example 9], for which the ED50 was above 135 mg/kg in assay [1] (setting [6]), 27.6 mg/kg in assay [2] and 6 mg/kg in assay [3] (setting [7]).
As for `COc1ccc2c3c1O[C@H]1C4(CCC5(F)C(C2)N(C)CCC315)OCCO4` (stereo partly shown) [Example 10], the ED50 was above 135 mg/kg in assay [1] (setting [6]), 5 mg/kg in assay [2] and above 135 mg/kg in assay [3] (setting [7]).
As to `COc1ccc2c3c1O[C@H]1C(=O)CCC4(F)C(C2)N(C)CCC314` (stereo partly shown) [Example 11], the values for the ED50 in assay [1] (setting [6]), in assay [2] and in assay [3] (setting [7]) were 45 mg/kg, 6.3 mg/kg and above 135 mg/kg, respectively.
Turning to `C=CCN1CC[C@]23c4c5ccc(O)c4O[C@H]2C(=O)CC[C@@]3(O)[C@H]1C5` [Naloxone], the “prevention of Straub tail induced by morphine” value in assay [4] was “prevent the induction of Straub tail”.
Take `C=CCN1CC[C@]23c4c5ccc(O)c4O[C@H]2[C@@H](O)C=C[C@H]3[C@H]1C5` [nalorphine]: in assay [4], the “prevention of Straub tail induced by morphine” value is given as “prevent the induction of Straub tail”.
On to `O=C1CC[C@@]2(O)[C@H]3Cc4ccc(O)c5c4[C@@]2(CCN3CC2CC2)[C@H]1O5` [naltrexone], for which the “abstinence of opiate addicts” value in assay [5] is reported as “remain abstinent”.
